Holding throughout (type): in vivo
One experiment concerns Hard Red Spring wheat. Kind of experiment: Hard Red Spring wheat seedling growth (root and shoot length). The settings on record: 10 μM ABA, 72 h. As to the method: For each treatment 3 replicates of 10 seeds were plated into petri dishes lined with two filter papers and 10 mL of test solution. The covered dishes were stored at room temperature in the dark. At 72 hours, germinated seeds were scored for root length and shoot length. The following dosages were used when studying the effect of the exemplary ABA analogues of the application on wheat shoot and root growth: control 1% DMSO. 10 μM ABA, 10 μM 1019, 100 μM exemplary compound 1019, 10 μM exemplary compound 1019 plus 10 μM ABA […] and 100 μM exemplary compound 1019 plus 10 μM ABA […].

Another experiment concerns Lentil (CDC Maxim). Kind of experiment: Lentil (CDC Maxim) seed germination assay. The settings on record: for antagonist activity, lentil germination: 10 uM versus 10 uM ABA; for antagonist activity, lentil germination / agonist activity, lentil germination: data not shown; for agonist activity, lentil germination: 10 uM; for lentil seed germination, antagonism of ABA: 10 μM ABA plus 10 μM compound (FIG. 6C). As to the method:
40 seeds were counted for each 100×15 mm petri dishes. Each petri dish contained two filter papers and 10 mL of test solutions. Then, they were wrapped with aluminium foil to cut off light. Wrapped plates were kept on lab bench at room temperature. Germinated seeds were counted everyday until one treatment reaches 100% germination (two days). Only light exposure was during plate counting. […]
All seeds from this experiment have been rinsed first with tap water and then with dH2O, frozen in liquid nitrogen and stored at −80° C. freezer.

Experiment [1] concerns Canola seed (Nutrien PV200). As to the kind of experiment: Canola seed germination assay. The settings on record: 10 μM ABA, 8 day study (FIG. 10). The procedure: For each treatment 6 replicates of 40 seeds were plated into petri dishes lined with two filter papers and 10 mL of test solution. The covered dishes were stored at room temperature in the dark. Germinated seeds were counted every 2 days for 8 days. The following dosages were used when studying the effect of exemplary compounds on canola germination: control 1% DMSO. 10 μM ABA, 100 μM 1019, and 100 μM 1019 plus 10 μM ABA.

The mark [2] stands for this setting: 100 μM compound, in the presence of 10 μM ABA (FIG. 5).
[3] abbreviates: 100 μM compound alone, compared to control (FIG. 6A).
The mark [4] stands for this setting: 100 μM compound plus 10 μM ABA (FIG. 6B).

The structures appear in SMILES notation.

Consider `CC1=CC(=O)CC(C)(C)[C@@]1(O)/C=C/C(C)=C\C(=O)O` [ABA, (2Z,4E)-5-[(1S)-1-hydroxy-2,6,6-trimethyl-4-oxocyclohex-2-en-1-yl]-3-methylpenta-2,4-dienoic acid, reference compound], for which the shoot growth result in the experiment on Hard Red Spring wheat is given as “inhibited”. For the same molecule, the lentil seed germination result with Lentil (CDC Maxim) (10 uM ABA alone, day one (FIG. 3A)) is listed as “completely inhibited”. The canola seed germination entry in experiment [1] is recorded as “inhibited seed germination”.
Regarding `CCc1ccc(C#CC2=C(C)[C@](O)(/C=C/C(C)=C\C(=O)O)C(C)(C)CC2=O)cc1` [Compound 1025, (2Z,4E)-5-((S)-3-((4-Ethylphenyl)ethynyl)-1-hydroxy-2,6,6-trimethyl-4-oxocyclohex-2-en-1-yl)-3-methylpenta-2,4-dienoic acid], the lentil seed germination entry in the experiment with Lentil (CDC Maxim) (compound at 1 uM) is reported as “most highly promoted”.
Take `CCC(O)(C#CC1=C(C)[C@](O)(/C=C/C(C)=C\C(=O)O)C(C)(C)CC1=O)CC` [Compound 1059, (2Z,4E)-5-((S)-3-(3-ethyl-3-hydroxypent-1-yn-1-yl)-1-hydroxy-2,6,6-trimethyl-4-oxocyclohex-2-en-1-yl)-3-methylpenta-2,4-dienoic acid]: in the experiment with Lentil (CDC Maxim), the “antagonist activity, lentil germination” value is listed as “weak antagonist activity” and the “agonist activity, lentil germination” value was “no agonist activity”.
Regarding `CC1=C(C#C/C(C)=C\CO)C(=O)CC(C)(C)[C@@]1(O)/C=C/C(C)=C\C(=O)O` [Compound 1063, (2Z,4E)-5-((S)-1-hydroxy-3-((Z)-5-hydroxy-3-methylpent-3-en-1-yn-1-yl)-2,6,6-trimethyl-4-oxocyclohex-2-en-1-yl)-3-methylpenta-2,4-dienoic acid], in the experiment with Lentil (CDC Maxim), the “antagonist activity, lentil germination” value is recorded as “weak antagonist activity” and the “agonist activity, lentil germination” value was “no agonist activity”.
For `CC1=C(c2ccccc2)C(=O)CC(C)(C)[C@@]1(O)/C=C/C(C)=C\C(=O)O` [Compound 1080, (2Z,4E)-5-((S)-3-hydroxy-2,4,4-trimethyl-6-oxo-3,4,5,6-tetrahydro-′[1,1′-biphenyl]-3-yl)-3-methylpenta-2,4-dienoic acid], the lentil seed germination result with Lentil (CDC Maxim) (setting [2]) was “weakly promoted”.
In the case of `CC1=C(/C=C/c2ccccc2)C(=O)CC(C)(C)[C@@]1(O)/C=C/C(C)=C\C(=O)O` [Compound 1090, (2Z,4E)-5-((S)-1-hydroxy-2,6,6-trimethyl-4-oxo-3-((E)-styryl)cyclohex-2-en-1-yl)-3-methylpenta-2,4-dienoic acid], the lentil seed germination result with Lentil (CDC Maxim) (setting [2]) was “promoted”.
On to `CC1=C(C#Cc2ccc(O)cc2)C(=O)CC(C)(C)[C@@]1(O)/C=C/C(C)=C\C(=O)O` [Compound 1091, (2Z,4E)-5-((S)-1-hydroxy-3-((4-hydroxyphenyl)ethynyl)-2,6,6-trimethyl-4-oxocyclohex-2-en-1-yl)-3-methylpenta-2,4-dienoic acid], for which, in the experiment with Lentil (CDC Maxim), the “lentil seed germination, antagonism of ABA” value is on record as “effective antagonists”. For the same molecule, the lentil seed germination entry with Lentil (CDC Maxim) (setting [3]) is “no effect”; with Lentil (CDC Maxim) (setting [4]) it was “overcame the effect”.
For `CC1=C(C#CC2CCCCC2)C(=O)CC(C)(C)[C@@]1(O)/C=C/C(C)=C\C(=O)O` [Compound 1100, (2Z,4E)-5-((S)-3-(cyclohexylethynyl)-1-hydroxy-2,6,6-trimethyl-4-oxocyclohex-2-en-1-yl)-3-methylpenta-2,4-dienoic acid], in that order: “effective antagonists”, “no effect” and “overcame the effect”.
